# Literature values in patent US12509559B2, “Bacterial beta-lactamase responsive hydrogels” (Brown University, priority 2019, dated 2025).
# Details: adamantane in β-cyclodextrin cavity
smiles,measurement,value
C1C2CC3CC1CC(C2)C3 [adamantane],"association constant, K",~10^5 M^−1
